Source: US9783524B2, “Protein tyrosine kinase modulators and methods of use” (BETTA PHARMACEUTICALS CO., LTD., priority 2013, dated 2017)
Where two headings read alike, the source gives them in different places.

Key:
Format in all cases: biochemical, human
[1] = tested on: EGFR (T790M) (h)
Description: (§1) Assay conditions included 10 μM ATP and 100 nM test compounds.
(§2) All reactions are initiated by the addition of the MgATP mix. After incubation for 40 minutes at room temperature, the reaction is stopped by the addition of 3% phosphoric acid solution. 10 μL of the reaction is then spotted onto a P30 filtermat and washed three times for 5 minutes in 75 mM phosphoric acid and once in methanol prior to drying and scintillation counting. This assay is performed by Millipore. The experiment is carried out in duplicate. The value for the control sample (DMSO) was set to 100%, and the values for the compound-treated samples were expressed as activity relative to the control sample.

[2] = tested on: ALK (h)
Description: as §1, §2

[3] = tested on: EGFR (T790M, L858R) (h)
Description: as §1
(§3) All reactions are initiated by the addition of the MgATP mix. After incubation for 40 minutes at room temperature, the reaction is stopped by the addition of 3% phosphoric acid solution. 10 μL of the reaction is then spotted onto a P30 filtermat and washed three times for 5 minutes in 75 mM phosphoric acid and once in methanol prior to drying and scintillation counting. […] The experiment is carried out in duplicate. The value for the control sample (DMSO) was set to 100%, and the values for the compound-treated samples were expressed as activity relative to the control sample.
(§4) (specific activity approx. 500 cpm/pmol, concentration as required) and 0.1 μM test compound.

[4] = tested on: EGFR (L858R) (h)
Description: as §1, §3, §4

[5] = 0.1 μM test compound, 10 μM ATP, remaining activity relative to DMSO control = 100%

| Structure (SMILES) | Activity (control) % EGFR (T790M) (h) [1, 5] | Activity (control) % ALK (h) [2, 5] | Activity (control) % EGFR (T790M, L858R) (h) [3, 5] | Activity (control) % EGFR (L858R) (h) [4, 5] | Activity (control) % EGFR (T790M) (h) [1] | Activity (control) % ALK (h) [2] | Activity (control) % EGFR (T790M, L858R) (h) [3] | Activity (control) % EGFR (L858R) (h) [4] |
| --- | --- | --- | --- | --- | --- | --- | --- | --- |
| C=CC(=O)Nc1cccc(Nc2ncc(Cl)c(Nc3ccccc3C(=O)C(=O)N(C)C)n2)c1 [Example 40, N-(3-(5-chloro-4-(2-(2-(dimethylamino)-2-oxoacetyl)phenylamino)pyrimidin-2-ylamino)phenyl)acrylamide] | 79% | 28% | 24% | – | – | – | – | – |
| COc1cc(N2CCN(C(C)=O)CC2)ccc1Nc1ncc(Cl)c(Nc2ccccc2C(=O)C(=O)N(C)C)n1 [Example 53, 2-(2-(2-(4-(4-acetylpiperazin-1-yl)-2-methoxyphenylamino)-5-chloropyrimidin-4-ylamino)phenyl)-N,N-dimethyl-2-oxoacetamide] | 21% | – | 4% | 60% | – | – | – | – |
| COc1cc(Nc2ncc(Cl)c(Nc3ccccc3C(=O)C(=O)N(C)C)n2)ccc1N1CCN(C)CC1 [Example 61, 2-(2-(5-chloro-2-(3-methoxy-4-(4-methylpiperazin-1-yl)phenylamino)pyrimidin-4-ylamino)phenyl)-N,N-dimethyl-2-oxoacetamide] | – | – | – | – | 54% | 5% | 13% | 70% |
| C=CC(=O)Nc1cc(Nc2ncc(Cl)c(Nc3ccccc3C(=O)C(=O)NC)n2)ccc1OC [Example 64, N-(5-(5-chloro-4-(2-(2-(methylamino)-2-oxoacetyl)phenylamino)pyrimidin-2-ylamino)-2-methoxyphenyl)acrylamide] | 79% | 47% | 39% | 100% | – | – | – | – |
| COc1ccc(NC(=O)/C=C/CN2CCCCC2)cc1Nc1ncc(Cl)c(Nc2ccccc2C(=O)C(=O)N(C)C)n1 [Example 72, (E)-N-(3-(5-chloro-4-(2-(2-(dimethylamino)-2-oxoacetyl)phenylamino)pyrimidin-2-ylamino)-4-methoxyphenyl)-4-(piperidin-1-yl)but-2-enamide] | 54% | 14% | 9% | 28% | – | – | – | – |
| COc1ccc(NC(=O)/C=C/CN(C)C)cc1Nc1ncc(Cl)c(Nc2ccccc2C(=O)C(=O)N(C)C)n1 [Example 80, (E)-N-(3-(5-chloro-4-(2-(2-(dimethylamino)-2-oxoacetyl)phenylamino)pyrimidin-2-ylamino)-4-methoxyphenyl)-4-(dimethylamino)but-2-enamide] | 42% | 10% | 7% | 43% | – | – | – | – |
| C=CC(=O)N1CCOc2ccc(Nc3ncc(Cl)c(Nc4ccccc4C(=O)C(=O)N(C)C)n3)cc21 [Example 87, 2-(2-(2-(4-acryloyl-3,4-dihydro-2H-benzo[b][1,4]oxazin-6-ylamino)-5-chloropyrimidin-4-ylamino)phenyl)-N,N-dimethyl-2-oxoacetamide] | – | – | – | – | – | 5% | – | – |
| C=CC(=O)Nc1cc(Nc2ncc(Cl)c(Nc3ccccc3C(=O)C(=O)N(C)C)n2)ccc1N1CCN(C)CC1 [Example 111, N-(5-(5-chloro-4-(2-(2-(dimethylamino)-2-oxoacetyl)phenylamino)pyrimidin-2-ylamino)-2-(4-methylpiperazin-1-yl)phenyl)acrylamide] | 59% | 8% | 11% | 76% | – | – | – | – |
| C=CC(=O)Nc1cc(Nc2ncc(Cl)c(Nc3ccccc3C(=O)C(=O)N(C)C)n2)ccc1OCCN(C)C [Example 115, N-(5-(5-chloro-4-(2-(2-(dimethylamino)-2-oxoacetyl)phenylamino)pyrimidin-2-ylamino)-2-(2-(dimethylamino)ethoxy)phenyl)acrylamide] | – | 6% | – | – | – | – | – | – |
| COc1cc(Nc2ncc(Cl)c(Nc3ccccc3C(=O)C(=O)N(C)C)n2)ccc1N1CCOCC1 [Example 117, 2-(2-(5-chloro-2-(3-methoxy-4-morpholinophenylamino)pyrimidin-4-ylamino)phenyl)-N,N-dimethyl-2-oxoacetamide] | 65% | 8% | 14% | 88% | – | – | – | – |
| CCC(=O)Nc1cc(Nc2ncc(Cl)c(Nc3ccccc3C(=O)C(=O)N(C)C)n2)ccc1OCCN(C)C [Example 120, N-(5-(5-chloro-4-(2-(2-(dimethylamino)-2-oxoacetyl)phenylamino)pyrimidin-2-ylamino)-2-(2-(dimethylamino)ethoxy)phenyl)propionamide] | 62% | 8% | 14% | 76% | – | – | – | – |
| CN(C)C(=O)C(=O)c1ccccc1Nc1nc(Nc2ccc(F)c(NC(=O)CCN3CCOCC3)c2)ncc1Cl [Example 123, N-(5-(5-chloro-4-(2-(2-(dimethylamino)-2-oxoacetyl)phenylamino)pyrimidin-2-ylamino)-2-fluorophenyl)-3-morpholinopropanamide] | 84% | 17% | 31% | 94% | – | – | – | – |
| C=C(CN(C)CCN(C)C)C(=O)Nc1cccc(Nc2ncc(Cl)c(Nc3ccccc3C(=O)C(=O)N(C)C)n2)c1 [Example 125, N-(3-(5-chloro-4-(2-(2-(dimethylamino)-2-oxoacetyl)phenylamino)pyrimidin-2-ylamino)phenyl)-2-(((2-(dimethylamino)ethyl)(methyl)amino)methyl)acrylamide] | 18% | 20% | 2% | 54% | – | – | – | – |
| C=CC(=O)Nc1ccc(OC)c(Nc2ncc(Cl)c(Nc3ccccc3C(=O)C(=O)N(CC)CC)n2)c1 [Example 131, N-(3-(5-chloro-4-(2-(2-(diethylamino)-2-oxoacetyl)phenylamino)pyrimidin-2-ylamino)-4-methoxyphenyl)acrylamide] | 82% | 9% | 27% | – | – | – | – | – |
| C=CC(=O)Nc1cc(Nc2ncc(Cl)c(Nc3ccccc3C(=O)C(=O)N(CC)CC)n2)ccc1OC [Example 132, N-(5-(5-chloro-4-(2-(2-(diethylamino)-2-oxoacetyl)phenylamino)pyrimidin-2-ylamino)-2-methoxyphenyl)acrylamide] | 77% | 16% | 30% | – | – | – | – | – |
| C=CC(=O)Nc1ccc(N2CCN(C)CC2)c(Nc2ncc(Cl)c(Nc3ccccc3C(=O)C(=O)N(C)C)n2)c1 [Example 135, N-(3-(5-chloro-4-(2-(2-(dimethylamino)-2-oxoacetyl)phenylamino)pyrimidin-2-ylamino)-4-(4-methylpiperazin-1-yl)phenyl)acrylamide] | 96% | 80% | 95% | – | – | – | – | – |
